In brackets after ≈: the same amount, converted by molar mass. Where a SMILES comes first, the peptide text is derived from it.
How the values were obtained:
[1] = test system: human immunodeficiency virus (HIV); conditions: for EC 50 (concentration at which cellular affection due to HIV infection is 50% inhibited): HIV-infected MT-4 cells, MOI 0.001, 5 days, MTT method; for Anti-HIV activity SI / Anti-HIV activity EC50: Table 3; for Anti-HIV activity SI: CC50/EC50; for Anti-HIV activity EC50: tested likewise in Example 2, HIV-infected MT-4 cells
Protocol: HIV-infected MT-4 cells (2.5×10^4 cells/well, multiplicity of infection (MOI): 0.001) immediately after the infection are added together with a test substance with various changes of the concentration to a 96-well microtiter plate. After incubation at […] for 5 days in a CO2 incubator, the number of survivor cells is measured by the MTT method [Pauwels et al.; J. Virol. Methods, 20, 309-321 (1988)]. […] On the other hand, in order to know the cytotoxicity of the test substance on the MT-4 cells, virus-non-infected cells are incubated, likewise as above, together with the test compound with various changes of the concentration. […] Further, the rough ratio of CC 50 to EC 50 (CC 50/EC 50) is expressed as an effective ratio (SI).

[2] = test system: MT-4 cells; assay: Cytotoxicity on virus-non-infected MT-4 cells (MTT method); assay type: cell-based; conditions: for CC 50 (50% cytotoxic concentration): Table 2, virus-non-infected MT-4 cells, 5 days, MTT method
Protocol: HIV-infected MT-4 cells (2.5×10^4 cells/well, multiplicity of infection (MOI): 0.001) immediately after the infection are added together with a test substance with various changes of the concentration to a 96-well microtiter plate. After incubation at 7° C. for 5 days in a CO2 incubator, the number of survivor cells is measured by the MTT method [Pauwels et al.; J. Virol. […] On the other hand, in order to know the cytotoxicity of the test substance on the MT-4 cells, virus-non-infected cells are incubated, likewise as above, together with the test compound with various changes of the concentration.

Compound	EC 50 (concentration at which cellular affection due to HIV infection is 50% inhibited) ([1]; Table 2)	SI (effective ratio, CC 50/EC 50) ([1]; Table 2, rough ratio of CC 50 to EC 50)	Anti-HIV activity SI [1]	Anti-HIV activity EC50 [1]	Concentration for antiviral activity relative to Tachyplesin I ([1]; compared with Tachyplesin I, Table 2 data)	Cytotoxicity compared with Tachyplesin I ([2]; MT-4 cells, Table 2 data)	CC 50 (50% cytotoxic concentration) [2]	CC 50 relative to azidothymidine (times higher) ([2]; compared with azidothymidine, Table 2 data)
CC[C@H](C)[C@@H]1NC(=O)CNC(=O)[C@H](CCCNC(=N)N)NC(=O)[C@H](Cc2ccc(O)cc2)NC(=O)[C@@H]2CSSC[C@H](NC1=O)C(=O)N[C@@H](Cc1ccc(O)cc1)C(=O)N[C@@H](CCCNC(=N)N)C(=O)N[C@@H](CCCCN)C(=O)N[C@H](C(=O)N[C@@H](CCCNC(=N)N)C(N)=O)CSSC[C@H](NC(=O)[C@H](Cc1c[nH]c3ccccc13)NC(=O)[C@@H](N)CCCNC(=N)N)C(=O)N[C@@H](Cc1ccc(O)cc1)C(=O)N[C@@H](CCCNC(=N)N)C(=O)N[C@@H](CCCCN)C(=O)N2 [Polypeptide (A)] (HELM PEPTIDE1{R.W.C.Y.R.K.C.Y.R.G.I.C.Y.R.K.C.R.[am]}$PEPTIDE1,PEPTIDE1,3:R3-16:R3|PEPTIDE1,PEPTIDE1,7:R3-12:R3$$$V2.0; N-terminus assumed)	0.35 µg/mL (≈ 0.152 µM)	110	1144	0.039 µg/mL	1/50	somewhat stronger cytotoxicity	39 µg/mL (≈ 16.9 µM)	60 times
[H][C@]12CSSC[C@]([H])(NC(=O)[C@]([H])([C@@H](C)CC)NC(=O)CNC(=O)[C@H](CCCNC(=N)N)NC(=O)[C@H](Cc3ccc(O)cc3)NC1=O)C(=O)N[C@@H](Cc1ccc(O)cc1)C(=O)N[C@@H](CCCNC(=N)N)C(=O)N[C@@H](CCCNC(=N)N)C(=O)N[C@H](C(=O)N[C@@H](CCCNC(=N)N)C(N)=O)CSSC[C@H](NC(=O)[C@H](Cc1c[nH]c3ccccc13)NC(=O)[C@@H](N)CCCCN)C(=O)N[C@@H](Cc1ccccc1)C(=O)N[C@@H](CCCNC(=N)N)C(=O)N[C@@H](C(C)C)C(=O)N2 [Tachyplesin I, reference compound] (HELM PEPTIDE1{K.W.C.F.R.V.C.Y.R.G.I.C.Y.R.R.C.R.[am]}$PEPTIDE1,PEPTIDE1,3:R3-16:R3|PEPTIDE1,PEPTIDE1,7:R3-12:R3$$$V2.0; N-terminus and C-terminus assumed; bridges inferred)	18.1 µg/mL (≈ 8 µM)						49 µg/mL (≈ 21.6 µM)	
(1): polypeptide of the invention, SEQ ID NO: 2, shown only as drawing (WCYRKCYRGICYRKCR)			30	6.9 µg/mL				
